Results published in ChEMBL document CHEMBL1201862, “PubChem BioAssay data set” (2004).
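Values below derive from 48-hour exposures of cells grown in 96-well plates, with endpoints linearly interpolated between the two concentrations bracketing the appropriate inhibition level. Abbreviation: GI50, concentration required for 50% inhibition of growth.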 Active and inactive are the calls of the source. Rule as the data show it: active = GI50 up to about 1.1 µM and inactive = higher.

How the values were obtained:
Assay in all cases: DTP human tumour cell line panel, 48 h
[1] = tested on: PC-3
[2] = tested on: ACHN
[3] = tested on: CAKI-1
[4] = tested on: DU-145
[5] = tested on: SNB-19
[6] = tested on: SNB-75
[7] = tested on: MDA-MB-435
[8] = tested on: SK-OV-3
[9] = tested on: SK-MEL-28
[10] = tested on: UACC-62
[11] = tested on: NCI-H23
[12] = tested on: BT-549
[13] = tested on: MDA-N
[14] = tested on: SF-268
[15] = tested on: NCI/ADR-RES
[16] = tested on: UO-31
[17] = tested on: OVCAR-4
[18] = tested on: OVCAR-8
[19] = tested on: K562
[20] = tested on: TK-10
[21] = tested on: Malme-3M
[22] = tested on: MDA-MB-231
[23] = tested on: SK-MEL-2
[24] = tested on: A498
[25] = tested on: RXF 393
[26] = tested on: SN12C
[27] = tested on: MCF7
[28] = tested on: HOP-62
[29] = tested on: M14
[30] = tested on: HL-60
[31] = tested on: SF-295
[32] = tested on: Hs-578T
[33] = tested on: OVCAR-5
[34] = tested on: HCC 2998
[35] = tested on: SK-MEL-5
[36] = tested on: SW-620
[37] = tested on: NCI-H460
[38] = tested on: SF-539
[39] = tested on: IGROV-1
[40] = tested on: HT-29
[41] = tested on: LOX IMVI
[42] = tested on: A549
[43] = tested on: HCT-15
[44] = tested on: KM12
[45] = tested on: NCI-H226
[46] = tested on: T47D
[47] = tested on: EKVX
[48] = tested on: NCI-H522
[49] = tested on: RPMI-8226
[50] = tested on: OVCAR-3
[51] = tested on: HOP-92
[52] = tested on: COLO 205
[53] = tested on: HCT-116
[54] = tested on: UACC-257
[55] = tested on: CCRF-CEM
[56] = tested on: U-251
[57] = tested on: MOLT-4
[58] = tested on: SR
[59] = tested on: 786-0

C=CCc1c(Cl)nc(Cl)nc1Cl was tested, and the GI50 [1] was 733 nM (active), the GI50 [2] was 346 nM (active) and the GI50 [3] was 17.6 nM (active). The GI50 [4] was 2010 nM (inactive), the GI50 [5] was 859 nM (active) and the GI50 [6] was 1080 nM (active). For the same compound, the GI50 [7] was 321 nM (active), the GI50 [8] was 1320 nM (inactive) and the GI50 [9] was 431 nM (active). The GI50 [10] was 333 nM (active), the GI50 [11] was 422 nM (active) and the GI50 [12] was 47.4 nM (active). The GI50 [13] was 30.8 nM (active), the GI50 [14] was 1660 nM (inactive) and the GI50 [15] was 853 nM (active). For the same compound, the GI50 [16] was 74.8 nM (active), the GI50 [17] was 243 nM (active) and the GI50 [18] was 274 nM (active). The GI50 [19] was < 15.1 nM (active), the GI50 [20] was 1080 nM (active) and the GI50 [21] was 159 nM (active). The GI50 [22] was 561 nM (active), the GI50 [23] was 478 nM (active) and the GI50 [24] was 1940 nM (inactive). For the same compound, the GI50 [25] was 217 nM (active), the GI50 [26] was 258 nM (active) and the GI50 [27] was 185 nM (active). The GI50 [28] was 515 nM (active), the GI50 [29] was < 15.6 nM (active) and the GI50 [30] was > 100000 nM (inactive). The GI50 [31] was 1930 nM (inactive), the GI50 [32] was 368 nM (active) and the GI50 [33] was 678 nM (active). For the same compound, the GI50 [34] was 832 nM (active), the GI50 [35] was 81.8 nM (active) and the GI50 [36] was 49.5 nM (active). For the same compound, the GI50 [37] was 565 nM (active), the GI50 [38] was 1040 nM (active) and the GI50 [39] was 323 nM (active). The GI50 [40] was 266 nM (active), the GI50 [41] was < 11.5 nM (active) and the GI50 [42] was 2040 nM (inactive). For the same compound, the GI50 [43] was 87.3 nM, the GI50 [44] was 439 nM (active) and the GI50 [45] was 42.1 nM (active). For the same compound, the GI50 [46] was 313 nM (active), the GI50 [47] was 1020 nM (active) and the GI50 [48] was < 19.1 nM (active). The GI50 [49] was 301 nM (active), the GI50 [50] was 161 nM (active) and the GI50 [51] was 255 nM (active). The GI50 [52] was 195 nM (active), the GI50 [53] was 352 nM (active) and the GI50 [54] was 641 nM (active). For the same compound, the GI50 [55] was < 10 nM (active), the GI50 [56] was 578 nM (active) and the GI50 [57] was 10.2 nM (active). The GI50 [58] was < 10 nM (active) and the GI50 [59] was 91.8 nM (active).
